In US20220087983A1, “ACTIVATING PYRUVATE KINASE R” (FORMA Therapeutics, Inc., priority 2020, published 2022):
Several values for one entry are separate records, joined by “and”; a condition that tells them apart may be missing. Equal values may be shown once.

Columns and labels:
[1] = test system: 2,3-DPG blood levels; assay: Phase 1: blood 2,3-DPG levels in healthy volunteers (LC-MS/MS); type: in vivo, human; settings: for Mean maximum percent change from baseline in 2,3-DPG: all doses and timepoints
Experimental: In this study, SAD/MAD cohorts are randomized (3 to 1) to receive Compound 1 or placebo (P). Compound 1 was evaluated first in 4 healthy SAD cohorts and 4 healthy MAD (14-day dosing period) cohorts. Based on the safety, and PK/PD profile from HS, Compound 1 is then evaluated in 1 SCD SAD cohort and 2 SCD MAD cohorts. Specifically, based on the safety and pharmacokinetic/pharmacodynamics (PK/PD) profile in healthy volunteer studies, Compound 1 is evaluated in patients (pts) with SCD, first in a single dose (SD or SAD) cohort and then in multiple-dose (MD or MAD) cohorts (14-day and 12-week). Safety assessments include AEs, vital signs, ECGs and laboratory parameters. PK/PD blood sampling was performed on Day 1 (SAD/MAD) and Day 14 (MAD) and up to 72 h after the last dose and at the end-of-study visit. PD parameters included 2,3-DPG, ATP, and p50 in all cohorts with additional PD studies (including oxygen scan) performed only in the SCD cohorts. PD parameters included 2,3-DPG, ATP, p50, RBC deformability with controlled deoxygenation and reoxygenation (Lorrca® oxygen scan) and varying osmolality (Lorrca® osmoscan)). To maintain study blind, pt identifiers were removed when needed.
In the SAD cohorts, the subjects' blood 2,3-DPG levels were measured periodically after dosing by a qualified LC-MS/MS method for the quantitation of 2,3-DPG in blood. Decreased 2,3-DPG blood levels were observed 6 hours following a single dose of Compound 1 at all dose levels (earlier timepoints were not collected). Maximum decreases in 2,3-DPG levels generally occurred ˜24 hours after the first dose with the reduction sustained ˜48-72 hr postdose. Table 15 reports the median percentage change in 2,3-DPG blood levels, relative to baseline, measured over time in healthy volunteers after a single dose of Compound 1 (200 mg, 400 mg, 700 mg, or 1000 mg) or placebo. Table 16 reports the mean percentage change in 2,3-DPG blood levels, relative to baseline, measured over time in healthy volunteers after a single dose of Compound 1 (200 mg, 400 mg, 700 mg, or 1000 mg). Accordingly, the median and mean reduction in the concentration of 2,3-DPG, relative to baseline, was at least about 30% at all dose levels tested 24 hours after administration of the single dose.
In the MAD cohorts, the subjects' blood 2,3-DPG levels were measured periodically after dosing by a qualified LC-MS/MS method for the quantitation of 2,3-DPG in blood. The maximum decrease in 2,3-DPG on Day 14 was 55% from baseline (median). […] Table 18A reports the median percentage change in 2,3-DPG blood levels, relative to baseline, measured over time after the first dose on days 1 and 14 in healthy volunteers who received daily doses of Compound 1 (100 mg BID, 200 mg BID, or 300 mg BID) or placebo for 14 days. Table 18B reports the mean percentage change in 2,3-DPG blood levels, relative to baseline, measured over time after the first dose on days 1 and 14 in healthy volunteers who received daily doses of Compound 1 (100 mg BID, 200 mg BID, 300 mg BID, or 400 mg QD) for 14 days. Accordingly, the median and mean reduction in the concentration of 2,3-DPG, relative to baseline, was at least about 25% at all dose levels tested 24 hours after administration of the first dose on day 1 and at least about 40% at all dose levels tested 24 hours after administration of the first dose on day 14.
The following procedures are employed for the analysis of ATP and 2,3-DPG in human whole blood K2EDTA using a protein precipitation extraction procedure and analysis by LC-MS/MS.
The following procedures are used for sample extraction prior to analysis via LC-MS/MS. 15.0 μL of the calibration standards, quality controls, matrix blanks, and samples are aliquoted into a 96-well plate. 50.0 μL of the internal standard spiking solution is added to all samples on the plate, with the exception of the matrix blank samples; 50.0 μL of water is added to the matrix blank samples. […]

[2] = test system: H295R adreno-cortical carcinoma cell line; assay: Steroid modulation screen in vitro; type: cell-based; settings: tested 200 to 0.0002 μM; only at the top concentration
Experimental: To assess potential effects on steroidogenesis, Compound 1 was screened for steroid modulation in vitro using the H295R adreno-cortical carcinoma cell line (at 200 to 0.0002 μM) and in an assay to monitor cell viability (MTT Kit). Compound 1 indicated steroid modulation potential (% over vehicle) only at 200 μM, the top concentration tested, with 100% cellular viability at concentrations≤20 μM (90% viability at 200 μM).

[3] = test system: CYP1A2; assay: CYP mRNA induction in cultured human hepatocytes; type: in vitro ADME; settings: donors AIH, EUJ, HC5-40 individually
[4] = test system: CYP2B6; assay: CYP mRNA induction in cultured human hepatocytes; type: in vitro ADME; settings: donors AIH, EUJ, HC5-40 individually
[5] = Permeability Papp (A-B); type: in vitro ADME; settings: not told

O=C([C@H](CO)c1ccccc1)N1CC2=C(C1)CN(S(=O)(=O)c1cnc3c(c1)OCCO3)C2 (single isomer, unassigned) [Compound 1]
maximum decrease in 2,3-DPG on Day 14 from baseline (median) ([1]; HV MAD cohorts): 55%
median and mean reduction of 2,3-DPG relative to baseline ([1]; HV MAD, all dose levels, 24 hours after first dose on day 1): at least 25%
median and mean reduction of 2,3-DPG relative to baseline ([1]; HV MAD, all dose levels, 24 hours after first dose on day 14): at least 40%
Mean maximum percent change from baseline in 2,3-DPG ([1]; HV MAD, N = 36): −56.3%
Mean maximum percent change from baseline in 2,3-DPG ([1]; HV SAD, N = 24): −46.8%
median and mean reduction of 2,3-DPG relative to baseline ([1]; HV, all single dose levels, 24 hours after dose): at least 30%
lag of maximum 2,3-DPG decrease behind maximum plasma concentration ([1]; HV, single 200-1000 mg dose): about 24 hours
Median percentage change in 2,3-DPG levels ([1]; HV, single dose 200 mg, 0 h after dose): 0.0%
Median percentage change in 2,3-DPG levels ([1]; HV, single dose 200 mg, 8 h after dose): −17%
Median percentage change in 2,3-DPG levels ([1]; HV, single dose 200 mg, 48 h after dose): −29%
Median percentage change in 2,3-DPG levels ([1]; HV, single dose 400 mg, 0 h after dose): 0.0%
Median percentage change in 2,3-DPG levels ([1]; HV, single dose 400 mg, 8 h after dose): −29%
Median percentage change in 2,3-DPG levels ([1]; HV, single dose 400 mg, 72 h after dose): −30%
Median percentage change in 2,3-DPG levels ([1]; HV, single dose 700 mg, 0 h after dose): 0.0%
Median percentage change in 2,3-DPG levels ([1]; HV, single dose 700 mg, 6 h after dose): −29%
Median percentage change in 2,3-DPG levels ([1]; HV, single dose 700 mg, 16 h after dose): −46%
Median percentage change in 2,3-DPG levels ([1]; HV, single dose 700 mg, 36 h after dose): −46%
Median percentage change in 2,3-DPG levels ([1]; HV, single dose 1000 mg, 36 h after dose): −47%
concentration at which steroid modulation potential (% over vehicle) was indicated [2]: 200 µM
mRNA Fold Induction CYP1A2 ([3]; 0.033 μM): 1.07 fold and 0.989 fold and 1.23 fold
mRNA Fold Induction CYP1A2 ([3]; 0.1 μM): 0.942 fold and 0.958 fold and 1.05 fold
mRNA Fold Induction CYP1A2 ([3]; 0.33 μM): 0.887 fold and 1.10 fold and 1.20 fold
mRNA Fold Induction CYP1A2 ([3]; 1 μM): 0.911 fold and 1.20 fold and 1.14 fold
mRNA Fold Induction CYP1A2 ([3]; 3.3 μM): 0.892 fold and 1.24 fold and 1.11 fold
mRNA Fold Induction CYP1A2 ([3]; 10 μM): 1.02 fold and 1.33 fold and 1.25 fold
mRNA Fold Induction CYP2B6 ([4]; 0.033 μM): 1.17 fold
mRNA Fold Induction CYP2B6 ([4]; 0.1 μM): 1.23 fold and 1.06 fold
mRNA Fold Induction CYP2B6 ([4]; 0.33 μM): 1.10 fold and 0.964 fold
mRNA Fold Induction CYP2B6 ([4]; 1 μM): 1.29 fold
mRNA Fold Induction CYP2B6 ([4]; 3.3 μM): 1.24 fold
mRNA Fold Induction CYP2B6 ([4]; 10 μM): 1.43 fold and 1.21 fold
fold induction at 1 µM ([4]; human, 1 μM): 1.07
fold induction at 3.3 µM ([4]; human, 3.3 μM): 1.25
fold induction at 0.033 µM ([4]; human, primary cultured human hepatocytes, 0.033 μM): 0.982
fold induction at 0.1 µM ([4]; human, primary cultured human hepatocytes, 0.1 μM): 1.01
fold induction at 0.33 µM ([4]; human, primary cultured human hepatocytes, 0.33 μM): 1
fold induction at 1 µM ([4]; human, primary cultured human hepatocytes, 1 μM): 1
fold induction at 3.3 µM ([4]; human, primary cultured human hepatocytes, 3.3 μM): 1.26
fold induction at 10 µM ([4]; human, primary cultured human hepatocytes, 10 μM): 1.7
Papp A→B [5]: 5.46 ×10⁻⁶ cm/s
